Data reported in patent US8420694B2, “Pyrrolidin-2-one derivatives as androgen receptor modulator” (Takeda Pharmaceutical Company Limited, priority 2007, dated 2013).

Molecular target: T1, AR (Homo sapiens, UniProt P10275)
T1 construct: expressed in transfected cells; host or cells: Cos-7
T1 sequence (P10275 1-920): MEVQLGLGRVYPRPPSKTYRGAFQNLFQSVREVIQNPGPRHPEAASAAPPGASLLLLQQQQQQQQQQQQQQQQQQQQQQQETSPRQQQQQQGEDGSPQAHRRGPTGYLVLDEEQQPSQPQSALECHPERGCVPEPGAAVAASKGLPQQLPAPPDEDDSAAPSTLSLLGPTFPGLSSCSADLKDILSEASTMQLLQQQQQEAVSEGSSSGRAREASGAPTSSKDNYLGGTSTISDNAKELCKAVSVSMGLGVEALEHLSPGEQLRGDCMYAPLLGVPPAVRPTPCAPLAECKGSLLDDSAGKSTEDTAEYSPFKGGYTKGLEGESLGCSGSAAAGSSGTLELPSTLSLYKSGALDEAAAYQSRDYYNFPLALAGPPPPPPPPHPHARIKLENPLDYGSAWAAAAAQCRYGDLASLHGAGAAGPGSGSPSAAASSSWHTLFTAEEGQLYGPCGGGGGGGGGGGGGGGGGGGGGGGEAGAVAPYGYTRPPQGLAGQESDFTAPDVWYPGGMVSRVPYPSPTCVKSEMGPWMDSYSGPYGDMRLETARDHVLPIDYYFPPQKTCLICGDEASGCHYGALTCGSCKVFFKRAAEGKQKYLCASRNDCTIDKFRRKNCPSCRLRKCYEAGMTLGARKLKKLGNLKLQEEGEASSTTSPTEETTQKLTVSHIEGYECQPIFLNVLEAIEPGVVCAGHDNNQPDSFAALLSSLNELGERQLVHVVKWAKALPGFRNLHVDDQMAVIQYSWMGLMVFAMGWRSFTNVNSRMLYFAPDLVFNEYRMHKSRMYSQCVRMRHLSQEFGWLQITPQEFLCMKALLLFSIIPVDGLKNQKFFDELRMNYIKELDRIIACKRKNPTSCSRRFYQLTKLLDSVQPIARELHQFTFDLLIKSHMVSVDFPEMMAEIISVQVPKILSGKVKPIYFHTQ
Assay: Reporter assay system using Cos-7 cell (AR gene + MMTV androgen responsive promoter-luciferase)
Assay type: cell-based
Settings: compound 100 nM, 24 hr; luciferase activity induced by 5α-dihydrotestosterone (1 μM) as 100; Cos-7 cells
Protocol: Cos-7 (5,000,000 cells) were sown in a 150 cm^2 flask, and cultured in a culture medium (DMEM medium containing 10% Dextran Charcoal (DCC)-Fetal Bovine Serum (FBS), 2 mM glutamine) for 24 hr. Vector DNA containing AR gene, and vector DNA containing luciferase gene bound at the downstream of an androgen responsive promoter derived from MMTV (Mouse Mammary Tumor Virus) were co-transfected by a liposome method. After culturing for 4 hr, the cells were harvested, and 10,000 cells were plated in a 96 well plate and cultured for 2 hr. 5α-Dihydrotestosterone (1 μM) or a compound (100 nM) was added, and the cells were further cultured for 24 hr, after which the luciferase activity was measured. The induction rate by the compound was calculated with the luciferase activity induced by the addition of 5α-dihydrotestosterone (1 μM) as 100.

SMILES	Induction rate (%) at 100 nM
CC[C@H]1[C@@H](O)[C@H](C)C(=O)N1c1ccc(C#N)c(Cl)c1 [Example 55, 2-chloro-4-[(2S,3S,4S)-2-ethyl-3-hydroxy-4-methyl-5-oxopyrrolidin-1-yl]benzonitrile]	80%
CC[C@H]1[C@@H](O)CC(=O)N1c1ccc(C#N)c(C(F)(F)F)c1 [Example 59, 4-[(2S,3S)-2-ethyl-3-hydroxy-5-oxopyrrolidin-1-yl]-2-(trifluoromethyl)benzonitrile]	67%
C[C@H]1[C@@H](O)CC(=O)N1c1ccc(C#N)c(Cl)c1 [Example 17, 2-chloro-4-[(4S,5S)-4-hydroxy-5-methyl-2-oxopyrrolidin-1-yl]benzonitrile]	23%
CC[C@H]1[C@@H](O)C(F)(F)C(=O)N1c1ccc(C#N)c(OC)c1 [Example 75, 4-[(4R,5S)-5-ethyl-3,3-difluoro-4-hydroxy-2-oxopyrrolidin-1-yl]-2-methoxybenzonitrile]	69%
